# Source: patent publication US8609622B2, “C-aryl glucoside derivatives, preparation process and pharmaceutical use thereof” (Shanghai Hengrui Pharmaceutical Co., Ltd., priority 2010, dated 2013)
# Legend:
# SGLT2 = SGLT2 (Homo sapiens (Human), UniProt P31639); assay: SGLT2 activity measurement: [14C] methyl α-D-glucopyranoside uptake in SGLT2 instantaneous transfer strain; type: cell-based; conditions: SGLT2 transfected cells, 96-well plate, 15 min preincubation, 2 hours with [14C] methyl α-D-glucopyranoside at 37° C.
# SGLT1 = SGLT1 (Homo sapiens (Human), UniProt P13866); assay: SGLT1 activity measurement: [14C] methyl α-D-glucopyranoside uptake in SGLT1 instantaneous transfer strain; type: cell-based; conditions: SGLT1 transfected cells, 96-well plate, 15 min preincubation, 2 hours with [14C] methyl α-D-glucopyranoside at 37° C.
# glucose-load mice = assay: Preliminary evaluation of the hypoglycemic effect in glucose-load mice; type: in vivo; conditions: ICR mice, dose 1 mg/kg, 20% glucose solution 4 g/kg given 15 minutes after administering, blood glucose at minute 0, 15, 30, 45, 60, 120
# Experimental: The purpose was to observe the effect of the test compounds on blood glucose levels of glucose-load mice. Determination and analysis of sugar content in the blood collected from the mouse tail was determined at different times within 2 hours of administration to provide preliminary evaluation of the hypoglycemic activity in vivo.
# The experimental animals used were 24 healthy ICR mice (weighing 20-24 g), 12 female and 12 male, purchased from Shanghai Super—B&K laboratory animal Corp. Ltd., animal production license number: SCXK (Shanghai) 2008-0016.
# To prepare the drug, a certain amount of compounds were weighed and dissolved in water (pure water OWN) and formulated into an aqueous solution of 0.1 mg/mL (5% DMSO for solubilization).
# The administered dose was 1 mg/kg, blank and water groups (containing 5% DMSO).
# 20% glucose solution (4 g/kg, 0.8 mL each mouse) was given after 15 minutes of administration.
# Administering in dose and measuring the blood glucose value (−15 minutes).
# SGLT2, sequence (P31639 whole entry, species assumed): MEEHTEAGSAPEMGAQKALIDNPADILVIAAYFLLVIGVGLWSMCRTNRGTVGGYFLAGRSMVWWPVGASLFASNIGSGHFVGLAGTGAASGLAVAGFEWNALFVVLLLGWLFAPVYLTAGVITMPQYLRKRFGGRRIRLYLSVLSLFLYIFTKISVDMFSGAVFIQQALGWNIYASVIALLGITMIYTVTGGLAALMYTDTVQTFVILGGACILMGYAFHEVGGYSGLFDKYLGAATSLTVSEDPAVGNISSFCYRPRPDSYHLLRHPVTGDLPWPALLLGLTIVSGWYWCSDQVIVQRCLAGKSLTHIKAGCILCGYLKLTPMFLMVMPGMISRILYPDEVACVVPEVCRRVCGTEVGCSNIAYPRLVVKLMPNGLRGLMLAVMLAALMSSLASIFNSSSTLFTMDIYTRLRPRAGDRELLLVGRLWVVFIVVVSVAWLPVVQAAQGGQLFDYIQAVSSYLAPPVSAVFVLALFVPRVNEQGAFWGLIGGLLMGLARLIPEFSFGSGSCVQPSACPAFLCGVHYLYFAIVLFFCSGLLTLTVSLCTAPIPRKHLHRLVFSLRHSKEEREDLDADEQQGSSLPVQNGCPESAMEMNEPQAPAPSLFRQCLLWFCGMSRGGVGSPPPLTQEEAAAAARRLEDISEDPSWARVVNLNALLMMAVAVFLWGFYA
# SGLT1, sequence (P13866 whole entry, species assumed): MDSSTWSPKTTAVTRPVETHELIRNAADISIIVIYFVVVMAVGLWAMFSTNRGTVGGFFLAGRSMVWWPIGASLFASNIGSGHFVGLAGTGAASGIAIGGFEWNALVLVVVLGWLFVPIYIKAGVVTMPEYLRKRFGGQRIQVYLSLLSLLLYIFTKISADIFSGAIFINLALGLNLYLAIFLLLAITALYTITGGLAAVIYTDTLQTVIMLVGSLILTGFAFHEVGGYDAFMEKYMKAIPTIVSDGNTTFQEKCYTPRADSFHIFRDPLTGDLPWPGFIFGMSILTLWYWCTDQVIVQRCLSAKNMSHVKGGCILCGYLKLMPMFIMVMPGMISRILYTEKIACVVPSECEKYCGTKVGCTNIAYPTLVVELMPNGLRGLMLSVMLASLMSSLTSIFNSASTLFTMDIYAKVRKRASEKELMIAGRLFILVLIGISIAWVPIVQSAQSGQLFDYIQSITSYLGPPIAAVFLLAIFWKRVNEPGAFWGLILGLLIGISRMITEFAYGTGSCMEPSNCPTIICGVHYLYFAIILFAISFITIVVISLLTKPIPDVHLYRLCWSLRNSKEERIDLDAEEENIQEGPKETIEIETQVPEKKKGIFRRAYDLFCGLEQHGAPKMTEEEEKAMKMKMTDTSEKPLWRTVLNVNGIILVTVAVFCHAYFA
Structure (SMILES),IC50 (SGLT2),IC50 (SGLT1),AUC decline rate % (glucose-load mice)
"COc1ccc(Cc2cc(C34OCC(CO)(O3)[C@@H](O)[C@H](O)[C@H]4O)ccc2Cl)c(F)c1F (stereo in doubt) [Example 2, (1S,2S,3S,4R,5S)-5-[4-chloro-3-[(2,3-difluoro-4-methoxy-phenyl)methyl]phenyl]-1-(hydroxymethyl)-6,8-dioxabicyclo[3.2.1]octane-2,3,4-triol]",3.65 nM,> 2000 nM,12.95%
"CCOc1ccc(Cc2cc(C34OCC(CO)(O3)[C@@H](O)[C@H](O)[C@H]4O)ccc2Cl)cc1F (stereo in doubt) [Example 4, (1S,2S,3S,4R,5S)-5-[4-chloro-3-[(4-ethoxy-3-fluoro-phenyl)methyl]phenyl]-1-(hydroxymethyl)-6,8-dioxabicyclo[3.2.1]octane-2,3,4-triol]",,,15.88%
"OCC12COC(c3ccc(Cl)c(Cc4ccc(OCC(F)(F)F)cc4)c3)(O1)[C@H](O)[C@@H](O)[C@@H]2O (stereo in doubt) [Example 7, (1S,2S,3S,4R,5S)-5-[4-chloro-3-[[4-(2,2,2-trifluoroethoxy)phenyl]methyl]phenyl]-1-(hydroxymethyl)-6,8-dioxabicyclo[3.2.1]octane-2,3,4-triol]",,,10.75%
"OCC12COC(c3ccc(Cl)c(Cc4ccc(OCC(F)(F)F)cc4)c3)(O1)C(O)C(O)C2O (single isomer, unassigned) [Example 7]",4.58 nM,14300 nM,
"OCC12COC(c3ccc(Cl)c(Cc4ccc(OC(F)(F)F)cc4)c3)(O1)[C@H](O)[C@@H](O)[C@@H]2O (stereo in doubt) [Example 6, (1S,2S,3S,4R,5S)-5-[4-chloro-3-[[4-(trifluoromethoxy)phenyl]methyl]phenyl]-1-(hydroxymethyl)-6,8-dioxabicyclo[3.2.1]octane-2,3,4-triol]",,,10.15%
"OCC12COC(c3ccc(Cl)c(Cc4ccc5c(c4)CCO5)c3)(O1)[C@H](O)[C@@H](O)[C@@H]2O (stereo in doubt) [Example 5, (1S,2S,3S,4R,5S)-5-[4-chloro-3-(2,3-dihydrobenzofuran-5-ylmethyl)phenyl]-1-(hydroxymethyl)-6,8-dioxabicyclo[3.2.1]octane-2,3,4-triol]",,,14.13%

# Continued, in another order:
IC50 (SGLT2),IC50 (SGLT1),Structure (SMILES),AUC decline rate % (glucose-load mice)
8.08 nM,,"CCOc1ccc(Cc2cc(C34OCC(CO)(O3)C(O)C(O)C4O)ccc2Cl)c(F)c1F (single isomer, unassigned) [Example 3]",
6.92 nM,,"CCOc1ccc(Cc2cc(C34OCC(CO)(O3)C(O)C(O)C4O)ccc2Cl)cc1F (single isomer, unassigned) [Example 4]",
9.53 nM,> 2000 nM,"OCC12COC(c3ccc(Cl)c(Cc4ccc(OCCOC5CC5)cc4)c3)(O1)[C@H](O)[C@@H](O)[C@@H]2O (stereo in doubt) [Example 1, (1S,2S,3S,4R,5S)-5-[4-chloro-3-[[4-[2-(cyclopropoxy)ethoxy]phenyl]methyl]phenyl]-1-(hydroxymethyl)-6,8-dioxabicyclo[3.2.1]octane-2,3,4-triol]",10.04%
6.35 nM,3550 nM,"[2H]C([2H])(c1ccc(OCC)c(F)c1)c1cc(C23OCC(CO)(O2)[C@@H](O)[C@H](O)[C@H]3O)ccc1Cl (stereo in doubt) [Example 11, (1S,2S,3S,4R,5S)-5-[4-chloro-3-[dideuterio-(4-ethoxy-3-fluoro-phenyl)methyl]phenyl]-1-(hydroxymethyl)-6,8-dioxabicyclo[3.2.1]octane-2,3,4-triol]",
3.31 nM,1220 nM,"[2H]C([2H])([2H])C([2H])([2H])Oc1ccc(Cc2cc(C34OCC(CO)(O3)[C@@H](O)[C@H](O)[C@H]4O)ccc2Cl)cc1F (stereo in doubt) [Example 10, (1S,2S,3S,4R,5S)-5-[4-chloro-3-[[3-fluoro-4-(1,1,2,2,2-pentadeuterioethoxy)phenyl]methyl]phenyl]-1-(hydroxymethyl)-6,8-dioxabicyclo[3.2.1]octane-2,3,4-triol]",
,2520 nM,"OCC12COC(c3ccc(Cl)c(Cc4ccc5c(c4)CCO5)c3)(O1)C(O)C(O)C2O (single isomer, unassigned) [Example 5]",
1.42 nM,600 nM,"[2H]C([2H])([2H])Oc1ccc(Cc2cc(C34OCC(CO)(O3)[C@@H](O)[C@H](O)[C@H]4O)ccc2Cl)cc1F (stereo in doubt) [Example 8, (1S,2S,3S,4R,5S)-5-[4-chloro-3-[[3-fluoro-4-(trideuteriomethoxy)phenyl]methyl]phenyl]-1-(hydroxymethyl)-6,8-dioxabicyclo[3.2.1]octane-2,3,4-triol]",20.49%
9.28 nM,1260 nM,"Cc1ccc(C23OCC(CO)(O2)C(O)C(O)C3O)cc1Cc1ccc(-c2ccc(F)cc2)s1 (single isomer, unassigned) [Example 9]",
